The values below come from ChEMBL document CHEMBL1201862, “PubChem BioAssay data set” (2004).

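Growth conditions: 96-well plates. Treatment: test compound, 48 hours, 5 concentrations. Analysis: linear interpolation between bracketing concentrations; unreached endpoints set to highest concentration. GI50 is the concentration that inhibits growth by half.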 Active and inactive are the calls of the source. No stated cut-off is given here; in the data, active = GI50 up to about 1.1 µM and inactive = higher.

Some test systems named below: UACC-257; HOP-92; SK-MEL-2; CAKI-1; U-251; CCRF-CEM; K562; HOP-62; IGROV-1; OVCAR-3; XF498; DMS-273; SW-620; KM-20L2; DLD-1; NCI-H522; DMS-114; MOLT-4; LXFL 529.
What all share (assay): growth of human tumour cells (NCI), 48 h

As to `CCOCN1COCN(C)C1=O`, the GI50 in the test on UACC-257, with HOP-92, in the test with SK-MEL-2, with CAKI-1, with U-251 and in the test with CCRF-CEM was > 100 µM (inactive) each time. In addition, the GI50 in the test on K562, with HOP-62, in the test with IGROV-1, in the test with OVCAR-3, in the test with XF498 and in the test with DMS-273 was > 100 µM (inactive) throughout. Besides, the GI50 with SW-620, with KM-20L2 and in the test on DLD-1 was > 100 µM (inactive) throughout.

`CCN(CC)/[N+]([O-])=N/OCC(C)O` (stereo not drawn): the GI50 in the test on UACC-257, in the test on HOP-92, in the test with SK-MEL-2, in the test on CAKI-1, with NCI-H522 and in the test with U-251 was > 100 µM (inactive) throughout. The GI50 with CCRF-CEM, in the test with K562, with HOP-62, in the test on IGROV-1, with OVCAR-3 and in the test with XF498 was > 100 µM (inactive) throughout. For the same compound, the GI50 in the test with DMS-273, in the test on DMS-114, with SW-620 and in the test with MOLT-4 was > 100 µM (inactive) in each case.

In the case of `Oc1ccc(I)c2cccnc12`, the GI50 in the test with UACC-257 was 16.3 µM (inactive); in the test on HOP-92 it was 15.9 µM (inactive); in the test on SK-MEL-2, 11.9 µM (inactive); with NCI-H522, 1.94 µM (inactive); with U-251 it was 6.78 µM (inactive); with CCRF-CEM, 2.42 µM (inactive). The GI50 with K562 is 2.93 µM (inactive); in the test with HOP-62, 14.8 µM (inactive); with IGROV-1, 8.18 µM (inactive); in the test on OVCAR-3, 4.82 µM (inactive); in the test with XF498, 38.9 µM (inactive); in the test on DMS-273, 2.04 µM (inactive). In addition, the GI50 in the test with LXFL 529 is 4.11 µM (inactive); with SW-620, 4.43 µM (inactive); in the test on KM-20L2 it was 50.4 µM (inactive); in the test on MOLT-4 it was 2.96 µM (inactive); in the test on DLD-1, 3.99 µM (inactive).

Take `CC(/C=C/c1ccccc1)=N\N=C(C)\C=C\c1ccccc1`: the GI50 in the test on UACC-257, with SK-MEL-2, in the test with NCI-H522, in the test on U-251, in the test with CCRF-CEM and in the test on K562 was > 100 µM (inactive) throughout. Further, the GI50 with HOP-62, in the test on IGROV-1, in the test with OVCAR-3, in the test on XF498, in the test on DMS-273 and in the test on LXFL 529 was > 100 µM (inactive) each time. Further, the GI50 with SW-620, with KM-20L2, in the test with MOLT-4 and in the test on DLD-1 was > 100 µM (inactive) in each case.

For the compound `CCC1C2C=CC(CC2)N1S(=O)(=O)c1ccc(C)cc1` (stereo not drawn), the GI50 in the test with UACC-257 was 20.9 µM (inactive); in the test with SK-MEL-2, 14 µM (inactive); in the test on CAKI-1, 20.8 µM (inactive); in the test with NCI-H522, 20.8 µM (inactive); in the test on CCRF-CEM, 22.4 µM (inactive); in the test with K562, 18.1 µM (inactive). Also, the GI50 with HOP-62 was 27.6 µM (inactive); in the test with OVCAR-3, 33.7 µM (inactive); in the test with DMS-273 it was 18.2 µM (inactive); in the test with DMS-114 it was 20.3 µM (inactive); with LXFL 529, 17.3 µM (inactive); in the test on SW-620 it was 16.8 µM (inactive). The GI50 in the test on KM-20L2 was 17.3 µM (inactive); in the test on MOLT-4, 32.6 µM (inactive).

For the compound `O=C(N/C(=C\c1cc(Cl)ccc1Cl)c1nc2ccccc2[nH]1)c1ccccc1`, the GI50 was 8.41 µM (inactive) in the test with HOP-92; 52 µM (inactive) in the test with SK-MEL-2; 30.8 µM (inactive) in the test on CAKI-1; 29.1 µM (inactive) with NCI-H522; 29.7 µM (inactive) in the test with U-251; 25.9 µM (inactive) in the test on CCRF-CEM. For the same compound, the GI50 in the test on K562 is 24.4 µM (inactive); with IGROV-1 it was > 10 µM (inactive); in the test with OVCAR-3, 36.3 µM (inactive); in the test on XF498, 26.9 µM (inactive); in the test with DMS-114, 35.3 µM (inactive); with LXFL 529 it was 24.5 µM (inactive). The GI50 in the test on SW-620 is 22 µM (inactive); in the test on KM-20L2, 34 µM (inactive); with MOLT-4, 14.9 µM (inactive); in the test with DLD-1, 17.1 µM (inactive).

With `O=C(O/C(=C(/N=N/c1ccccc1)c1ccccc1)c1ccccc1)c1ccccc1`, the GI50 in the test with UACC-257 was > 100 µM (inactive); in the test on HOP-92, 82 µM (inactive); in the test with SK-MEL-2 it was > 100 µM (inactive); with CAKI-1 it was > 100 µM (inactive); in the test with NCI-H522 it was > 100 µM (inactive); in the test on U-251 it was > 100 µM (inactive). Further, the GI50 in the test with K562 is 48.1 µM (inactive); in the test with IGROV-1 it was > 100 µM (inactive); in the test with XF498, > 100 µM (inactive); in the test on DMS-114, > 100 µM (inactive); with LXFL 529, > 100 µM (inactive); in the test on SW-620, > 100 µM (inactive). The GI50 with KM-20L2 is > 100 µM (inactive); with MOLT-4 it was > 100 µM (inactive); in the test with DLD-1, 89.1 µM (inactive).

Take `Cc1ccc(/C=C/C(=O)C(C)(C)CN2CCCCC2)cc1`: the GI50 is 7.76 µM (inactive) in the test on UACC-257; 10.7 µM (inactive) in the test on SK-MEL-2; 3.78 µM (inactive) in the test on CAKI-1; 3.33 µM (inactive) with NCI-H522; 13.7 µM (inactive) with U-251; 3.11 µM (inactive) in the test with CCRF-CEM. The GI50 with K562 was 2.27 µM (inactive); in the test on HOP-62, 15.7 µM (inactive); in the test with IGROV-1 it was 11.4 µM (inactive); in the test with OVCAR-3, 2.81 µM (inactive); with XF498 it was 11.7 µM (inactive); in the test on DMS-273, 3.02 µM (inactive). Further, the GI50 in the test on LXFL 529 was 6.62 µM (inactive); in the test with SW-620, 2.72 µM (inactive); with KM-20L2, 2.86 µM (inactive); with MOLT-4 it was 2.47 µM (inactive).

As for `COP(=O)(CC(=O)C1OC(C)(C)OC1C(O)COCc1ccccc1)OC` (stereo not drawn), the GI50 with UACC-257, with HOP-92, with SK-MEL-2, in the test on CAKI-1, with U-251 and in the test on CCRF-CEM was > 100 µM (inactive) each time. Further, the GI50 in the test with K562, in the test on HOP-62, in the test with IGROV-1, with OVCAR-3, in the test with DMS-273 and in the test with DMS-114 was > 100 µM (inactive) in each case. The GI50 with LXFL 529, in the test on SW-620, in the test with KM-20L2, with MOLT-4 and in the test with DLD-1 was > 100 µM (inactive) each time.

As to `O=c1c2ccccc2n2n1CC(O)C2` (stereo not drawn), the GI50 in the test on UACC-257, in the test on HOP-92, with SK-MEL-2, with CAKI-1, with NCI-H522 and in the test with U-251 was > 100 µM (inactive) throughout. Also, the GI50 in the test on CCRF-CEM, in the test with K562, in the test on HOP-62, in the test with IGROV-1, with OVCAR-3 and in the test with XF498 was > 100 µM (inactive) throughout. Also, the GI50 in the test on DMS-273, in the test on SW-620, in the test on KM-20L2, in the test on MOLT-4 and with DLD-1 was > 100 µM (inactive) each time.

Turning to `ClC[Si]12OCCN(CCO1)CCO2`, the GI50 in the test with UACC-257, in the test with HOP-92, with SK-MEL-2, in the test with CAKI-1, in the test on NCI-H522 and with U-251 was > 100 µM (inactive) throughout. Moreover, the GI50 in the test on CCRF-CEM, in the test with K562, in the test with IGROV-1, in the test with OVCAR-3, in the test on DMS-273 and with DMS-114 was > 100 µM (inactive) each time. The GI50 in the test on LXFL 529, with SW-620, in the test with MOLT-4 and with DLD-1 was > 100 µM (inactive) each time.

Consider `[C-]#[N+]C(C)(C)C[C@H]1CC(C)C2CCC(C)C3([N+]#[C-])CCC(=C)C1[C@H]23` (stereo partly drawn), for which the GI50 with UACC-257 is 0.959 µM (active); in the test with HOP-92, 0.106 µM (active); in the test with SK-MEL-2, 0.753 µM (active); with CAKI-1, 3.19 µM (inactive); with NCI-H522, 1.95 µM (inactive); in the test on U-251, 1.51 µM (inactive). Also, the GI50 with CCRF-CEM was 2.37 µM (inactive); in the test on K562 it was 0.327 µM (active); with HOP-62 it was 2.55 µM (inactive); with IGROV-1, 1.34 µM (inactive); with OVCAR-3, 2.36 µM (inactive); with XF498, 2.62 µM (inactive). In addition, the GI50 in the test with DMS-273 was 0.286 µM (active); with LXFL 529, 1.82 µM (inactive); in the test with SW-620 it was 5.08 µM (inactive); with KM-20L2, 5.36 µM (inactive); with MOLT-4 it was 0.316 µM (active); in the test with DLD-1, 0.269 µM (active).
